Laboratory results from ChEMBL document CHEMBL3864142, “Allicin-inspired thiolated fluoroquinolones as antibacterials against ESKAPE pathogens” (2016).

Assays:
Type in all cases: functional
[1] = test system: Enterococcus faecium; assay: Antibacterial activity against vancomycin-resistant Enterococcus faecium ATCC 700221 at 50 uM by disc diffusion method; conditions: read-out: DIZ
[2] = test system: Staphylococcus aureus; assay: Antibacterial activity against methicillin-resistant Staphylococcus aureus BAA-1747 at 50 uM by disc diffusion method; conditions: read-out: DIZ
[3] = test system: Klebsiella pneumoniae; assay: Antibacterial activity against ESBL-producer Klebsiella pneumoniae K6 700603 at 50 uM by disc diffusion method; conditions: read-out: DIZ
[4] = test system: Acinetobacter baumannii; assay: Antibacterial activity against ciprofloxacin-resistant Acinetobacter baumannii BAA-1605 at 50 uM by disc diffusion method; conditions: read-out: DIZ
[5] = test system: Pseudomonas aeruginosa; assay: Antibacterial activity against Pseudomonas aeruginosa ATCC 15442 at 50 uM by disc diffusion method; conditions: read-out: DIZ
[6] = test system: Enterobacter cloacae; assay: Antibacterial activity against Enterobacter cloacae ATCC 23355 at 50 uM by disc diffusion method; conditions: read-out: DIZ
[7] = test system: Enterococcus faecium; assay: Antibacterial activity against vancomycin-resistant Enterococcus faecium ATCC 700221 at 25 uM in presence of 10 uM ciprofloxacin by disc diffusion method
[8] = test system: Staphylococcus aureus; assay: Antibacterial activity against methicillin-resistant Staphylococcus aureus BAA-1747 at 25 uM in presence of 10 uM ciprofloxacin by disc diffusion method
[9] = test system: Klebsiella pneumoniae; assay: Antibacterial activity against ESBL-producer Klebsiella pneumoniae K6 700603 at 25 uM in presence of 10 uM ciprofloxacin by disc diffusion method
[10] = test system: Acinetobacter baumannii; assay: Antibacterial activity against ciprofloxacin-resistant Acinetobacter baumannii BAA-1605 at 25 uM in presence of 10 uM ciprofloxacin by disc diffusion method
[11] = test system: Pseudomonas aeruginosa; assay: Antibacterial activity against Pseudomonas aeruginosa ATCC 15442 at 25 uM in presence of 10 uM ciprofloxacin by disc diffusion method
[12] = test system: Enterobacter cloacae; assay: Antibacterial activity against Enterobacter cloacae ATCC 23355 at 25 uM in presence of 10 uM ciprofloxacin by disc diffusion method
[13] = test system: Enterococcus faecium; assay: Antibacterial activity against vancomycin-resistant Enterococcus faecium ATCC 700221 at 50 uM in presence of 10 uM ciprofloxacin by disc diffusion method
[14] = test system: Staphylococcus aureus; assay: Antibacterial activity against methicillin-resistant Staphylococcus aureus BAA-1747 at 50 uM in presence of 10 uM ciprofloxacin by disc diffusion method
[15] = test system: Klebsiella pneumoniae; assay: Antibacterial activity against ESBL-producer Klebsiella pneumoniae K6 700603 at 50 uM in presence of 10 uM ciprofloxacin by disc diffusion method
[16] = test system: Acinetobacter baumannii; assay: Antibacterial activity against ciprofloxacin-resistant Acinetobacter baumannii BAA-1605 at 50 uM in presence of 10 uM ciprofloxacin by disc diffusion method
[17] = test system: Pseudomonas aeruginosa; assay: Antibacterial activity against Pseudomonas aeruginosa ATCC 15442 at 50 uM in presence of 10 uM ciprofloxacin by disc diffusion method
[18] = test system: Enterobacter cloacae; assay: Antibacterial activity against Enterobacter cloacae ATCC 23355 at 50 uM in presence of 10 uM ciprofloxacin by disc diffusion method

SMILES: C=CCS[S+]([O-])CC=C (stereo not drawn) [ALLICIN]
- zone of inhibition at 50 µM [1]: 18 mm
- zone of inhibition at 50 µM [2]: 28 mm
- zone of inhibition at 50 µM [3]: 13 mm
- zone of inhibition at 50 µM [4]: 24 mm
- zone of inhibition at 50 µM [5]: 0 mm
- zone of inhibition at 50 µM [6]: 15 mm
- diameter of the inhibition zone (DIZ) [7]: 10 mm
- diameter of the inhibition zone (DIZ) [8]: 25 mm
- diameter of the inhibition zone (DIZ) [9]: 22 mm
- diameter of the inhibition zone (DIZ) [10]: 20 mm
- diameter of the inhibition zone (DIZ) [11]: 28 mm
- diameter of the inhibition zone (DIZ) [12]: 31 mm
- diameter of the inhibition zone (DIZ) [13]: 17 mm
- diameter of the inhibition zone (DIZ) [14]: 29 mm
- diameter of the inhibition zone (DIZ) [15]: 24 mm
- diameter of the inhibition zone (DIZ) [16]: 25 mm
- diameter of the inhibition zone (DIZ) [17]: 27 mm
- diameter of the inhibition zone (DIZ) [18]: 31 mm
